For data set [1], the system named is patients with idiopathic RLS. Kind of data set: Open label RLS study, 2 week administration in 10 patients with idiopathic RLS. The format is in vivo, human. Here is the method: In an open label study conducted on 10 patients with idiopathic RLS, 2 week administration of (S)-(+)-2-[4-(3-Fluorobenzyloxy)-benzylamino]-propanamide 100 mg/die resulted efficacious in improving RLS symptoms. Patients were included in the study if they fulfilled the minimal diagnostic criteria according to the International RLS Study Group. Patients' symptoms had to interfere with sleep onset or maintenance for at least 6 months and at least 15 nights during the last 12 weeks, and they should have IRLS 10(International Restless Legs Syndrome) score equal to or greater than 15 at baseline assessment. Physical examination, biochemical and haematological laboratory tests and electrocardiogram were performed to ensure that selection criteria were fulfilled. Polysomnography was performed for 2 nights at baseline and 2 nights at the end of treatment, in order to verify the effects of (S)-(+)-2-[4-(3-Fluorobenzyloxy)benzylamino]propanamide on sleep. Efficacy was measured through the following evaluation scales: International Restless Legs Syndrome 10 (IRLS 10), Restless Legs Syndrome Quality of Life (RLS QoL), Work Productivity and Activity Impairment Questionnaire (WPAI RLS) and Clinical Global Impression (CGI part I and CGI part II).
Ten out of 10 patients enrolled were considered eligible for the efficacy analysis: ail of them completed the planned period of treatment of 14+3 days. […] As to the main disease, it was considered severe in 70% of patients according to CGI criteria and confirmed by IRLS-10 score, with an impact on daily activity, that could be quantified (according to WPAI-RLS, and RLS-QoLQ results) in about ⅓ of the usual performances.

In data set [2] the test system is cocaine-induced hyperactivity. Kind of data set: Cocaine interaction study in mice (cocaine-induced locomotion increase). Type of data set: in vivo, Swiss-Webster Mice. As to conditions: 100 mg/kg ip, cocaine 20 mg/kg ip. An excerpt: Typically, psychostimulant addictive drugs as amphetamine and cocaine induce an increase in locomotor activity in rodents and primate. Some compounds with anti-addictive potential properties can prevent the increase in locomotor activity induced by psychostimulant drugs. (Katz J L, Kopajtic T A, Myers K A, Mitkus R J, Chider M, Behavioral effects of cocaine: interactions with D1 dopaminergic antagonists and agonists in mice and squirrel monkeys. J Pharmacol Exp Ther. 1999 October; 291(1):265-79).
The effect of test compounds is evaluated in a mice model of cocaine-induced locomotion increase.
Subjects: Swiss-Webster Mice, Male
Apparatus: Automated Photocell Chambers
Drugs: Cocaine 20 mg/kg is administered ip, test compounds dissolved in vehicle are administered ip at different doses (10-100 mg/kg) right before cocaine.
Behavioral test; Animals (8 per experimental group) received ip injection of cocaine (20 mg/kg) or saline and either the test compounds (10-100 mg/kg ip) or their vehicle and locomotor activity is recorded for 1 hour. […]
Maximal effect: The 30 min time period in which cocaine (20 mg/kg) produces the maximal activity is used to determine test compound effect. […] The AD50 (dose that attenuates cocaine-induced stimulation by 50%) is determined from the linear regression analysis.

Another data set has as its system cocaine detoxification. As to conditions: rats and human; cited from earlier work.
Another data set relates to smoking cessation. The following applies: 200 mg/day; from 17 to 30%; cited from earlier work.
The test system of another data set is alcohol dependence. As to conditions: clinical study; cited from earlier work.
The mark [3] stands for this setting: 100 mg/die, 2 weeks, 10 patients.

The structures appear in SMILES notation. “Also recorded” adds a separate entry of the source.

Consider `C[C@H](NCc1ccc(OCc2cccc(F)c2)cc1)C(N)=O` [(S)-(+)-2-[4-(3-Fluorobenzyloxy)-benzylamino]propanamide], for which, in data set [1] (100 mg/die, 2 week administration, 10 patients), the “improvement of RLS symptoms” value is recorded as “efficacious; also recorded: significant improvement”. Further, in data set [1] (setting [3]), the adverse events result was “no adverse events” and the tolerability result is recorded as “well tolerated”. Further, in data set [1] (Final visit), the “CGI part II changes from previous visit: Minimally Improved” value is on record as 5 (50) N (%), the “CGI part II changes from previous visit: Much Improved” value was 2 (20) N (%), the “CGI part II changes from previous visit: No change” value is 1 (10) N (%) and the “CGI part II changes from previous visit: Very Much Improved” value was 2 (20) N (%). For the same compound, the “IRLS 10 Score, Impact, Mean” value in data set [1] (Final visit (baseline 4.20)) was found to be 3.00. Moreover, the “IRLS 10 Score, Associate Features, mean” value in data set [1] (Final visit (baseline 5.10)) stood at 4.30. In data set [1] (Final visit (baseline 7.00)), the “IRLS 10 Score, Severity, mean” value is given as 6.00. Further, the “IRLS 10 Score, Diagnostic Features, mean” value in data set [1] (Final visit (baseline 11.20)) worked out at 8.50. Moreover, the “IRLS 10 Score, Total Score, mean” value in data set [1] (Final visit (baseline 27.50)) was determined as 21.80. For the same compound, in data set [1] (Final vs Baseline, p 0.002), the “IRLS 10 Score, Diagnostic Features, changes” value is on record as −2.70 and the “IRLS 10 Score, Total Score, changes” value is recorded as −5.70. For the same compound, the “IRLS 10 Score, Impact, changes” value in data set [1] (Final vs Baseline, p 0.003) was −1.20. The “IRLS 10 Score, Severity, changes” value in data set [1] (Final vs Baseline, p 0.063) is recorded as −1.00. The “IRLS 10 Score, Associate Features, changes” value in data set [1] (Final vs Baseline, p 0.070) is given as −0.80. In data set [1] (after 2 weeks), the “CGI part I: patients with stable disease” value amounted to 40%, the “CGI part II: patients with improvement of any grading” value turned out to be 90% and the “CGI part II: patients with no changes” value is on record as 10%. In addition, the “WPAI-RLS item 6 impairment of daily activities” value in data set [1] (after 2 weeks (from 34% at baseline), p=0.005, FIG. 3) was 22%. The “Polysomnographic registration: PLM (Wake+Sleep) Index” value in data set [1] (after 2 weeks versus baseline, FIG. 4) was “statistically significant improvement versus baseline”. In addition, the “Polysomnographic registration: PLM Sleep Index” value in data set [1] (after 2 weeks versus baseline, FIG. 5) is “statistically significant improvement versus baseline”. Also, the “Polysomnographic registration: PLM Wake Index” value in data set [1] (after 2 weeks versus baseline, FIG. 6) is “statistically significant improvement versus baseline”. The RLS-QoLQ total score entry in data set [1] (after 2 weeks vs baseline, p=0.002, FIG. 2) was “significant decrease”. In data set [1] (after 2 weeks, P=0,031), the “CGI part I: patients with improvement in disease situation” value is listed as 60%. Further, in data set [1] (after 2 weeks, p=0.002), the “IRLS-10 scale total score, result in words” value is recorded as “statistically significant improvement”. Also, in data set [1] (conclusion of the trial), the safety profile result is reported as “good safety profile”. The “effect on cocaine-induced hyperactivity (total locomotor activity)” value in data set [2] was “significantly decreased”.
`C#CCN(C)[C@H](C)Cc1ccccc1` [Selegeline, selegiline, reference compound]: the “anti-reinforcing effect during cocaine detoxification” value in the data set with cocaine detoxification was “moderate anti-reinforcing effect”. Moreover, in data set [2], the “effect on cocaine-induced hyperactivity (total locomotor activity)” value is given as “did not reverse”.
Consider `NCCNC(=O)c1ccc(Cl)cn1` [lazabemide], for which the “percentage of smoking cessation” value in the data set with smoking cessation was 30%.
As to `CC1(C)O[C@@H]2[C@@H](CO[C@@]3(COS(N)(=O)=O)OC(C)(C)O[C@@H]23)O1` [topiramate], the “efficacy in the treatment of alcohol dependence” value in the data set on alcohol dependence was “efficacious”.
